Article PMC9295786, “Discovery of potent BET bromodomain 1 stereoselective inhibitors using DNA-encoded chemical library selections” (Proceedings of the National Academy of Sciences of the …, 2022)
Several values for one entry are separate records, joined by “and”; a condition that tells them apart may be missing. Equal entries are not always repeated. Where two headings read alike, the source gives them in different places.

Key:
BRD4-BD1 = BRD4-BD1 (Homo sapiens, UniProt O60885); experiment: AlphaScreen competition assay with biotinylated JQ1; format: binding; parameters: the bromodomain 1 (BD1) of BRD4; made in house; host or cells: bacteria (pET15b or pET28b vector); conditions: for BRD4-BD1 vs. BRD4-BD2 fold (BRD4-BD1 selectivity): ratio of AlphaScreen IC50 values, NE = not efficient; for IC50: read-out: BRD4-BD1 IC50
BRD4-BD2 = molecular target: T1, BRD4-BD2 (Homo sapiens, UniProt O60885); experiment: as above; format: binding; conditions: read-out: BRD4-BD2 IC50
T1 construct: two similar tandem bromodomains (BD1 and BD2); made in house; host or cells: bacteria (pET15b or pET28b vector)

BRDT-BD1 = BRDT-BD1 (Homo sapiens, UniProt Q58F21); experiment: as above; format: binding; parameters: the first bromodomain of BRDT (BRDT-BD1); made in house; host or cells: bacteria (pET15b or pET28b vector); conditions: for BRDT-BD1 vs. BRDT-BD2 fold (BRDT-BD1 selectivity): ratio of AlphaScreen IC50 values, NE = not efficient
BRDT-BD2 = molecular target: T2, BRDT-BD2 (Homo sapiens, UniProt Q58F21); experiment: as above; format: binding; conditions: read-out: BRDT-BD2 IC50
T2 construct: two similar tandem bromodomains (BD1 and BD2); made in house; host or cells: bacteria (pET15b or pET28b vector)

MV4;11 cells = experiment: Cell viability by CellTiterGlo; format: cell-based; conditions: Table S6, NE = not efficient, read-out: MV4-11 EC50 (viability)
[1] = AlphaScreen, biotinylated JQ1 10 nM, His-bromodomain 10 nM
[2] = AlphaScreen, biotinylated JQ1 10 nM, His-bromodomain 10 nM, NE = not efficient

Row | Compound | BRD4-BD1 vs. BRD4-BD2 fold (BRD4-BD1 selectivity) (BRD4-BD1) | IC50 (BRD4-BD1) [nM] | IC50 (BRD4-BD2) [nM] | IC50 (BRDT-BD1) [nM] | BRDT-BD1 vs. BRDT-BD2 fold (BRDT-BD1 selectivity) (BRDT-BD1) | IC50 (BRDT-BD2) [nM] | IC50 (BRD4-BD2; [2]) [nM] | fold loss of selectivity on BRDT-BD1 (BRDT-BD1; AlphaScreen) [fold] | EC50 (MV4;11 cells; Homo sapiens, MV4-11) [nM] | fold loss of selectivity over BRD4-BD2 (BRD4-BD1; AlphaScreen) [fold] | EC50 (MV4;11 cells) [nM] | IC50 (BRD4-BD1; [1]) [nM] | IC50 (BRDT-BD1; [1]) [nM] | IC50 (BRDT-BD2; [2]) [nM]
1 | CNC(=O)C(CC1CCN(C(=O)Cc2ccc3[nH]c(=O)cc(C)c3c2)CC1)NC(=O)c1ccc(-c2ccc(C)cc2C)cn1 (centres unmarked) [CDD-724] | 4035 fold | 8.5 | 34300 | 5.7 | 2,246 fold and > 2,000 fold | 12800 |  |  |  |  |  |  |  | 
2 | Cc1cc(=O)[nH]c2ccc(CC(=O)N3CCN(CCNC(=O)c4ccccn4)CC3)cc12 [CDD-778] |  |  |  |  | 13.8 fold |  |  |  |  |  |  | 1300 | 5200 | 71800
3 | CNC(=O)C(CC1CCN(C(=O)Cc2ccc3[nH]c(=O)cc(C)c3c2)CC1)NC(=O)c1ccccn1 (centres unmarked) [CDD-784] | 2,078 fold |  |  |  | 960 fold |  | 32600 |  |  |  |  | 15.7 | 20.2 | 19400
4 | Cc1cc(=O)[nH]c2ccc(CC(=O)N3CCC(CCNC(=O)c4cc5ccccc5cn4)CC3)cc12 [CDD-854] |  |  |  |  |  |  |  |  |  |  |  | 119 | 116 | 
5 | Cc1cc(=O)[nH]c2ccc(CC(=O)N3CCC(CCNC(=O)c4ccc5ccccc5n4)CC3)cc12 [CDD-855] |  |  |  |  |  |  |  |  |  |  |  | 122 | 81.3 | 
6 | CNC(=O)C(CC1CCN(C(=O)Cc2ccc3[nH]c(=O)ccc3c2)CC1)NC(=O)c1ccc(-c2ccccc2)cn1 (centres unmarked) [CDD-986] | 2,352 fold |  |  |  | 3,875 fold |  | 16700 |  |  | 1.6 | 143 |  |  | 20900

Continued, in another order:

Row | BRD4-BD1 vs. BRD4-BD2 fold (BRD4-BD1 selectivity) (BRD4-BD1) | IC50 (BRD4-BD1) [nM] | IC50 (BRD4-BD2) [nM] | IC50 (BRDT-BD1) [nM] | BRDT-BD1 vs. BRDT-BD2 fold (BRDT-BD1 selectivity) (BRDT-BD1) | IC50 (BRDT-BD2) [nM] | IC50 (BRD4-BD2; [2]) [nM] | fold loss of selectivity on BRDT-BD1 (BRDT-BD1; AlphaScreen) [fold] | EC50 (MV4;11 cells; Homo sapiens, MV4-11) [nM] | fold loss of selectivity over BRD4-BD2 (BRD4-BD1; AlphaScreen) [fold] | EC50 (MV4;11 cells) [nM] | Compound | IC50 (BRD4-BD1; [1]) [nM] | IC50 (BRDT-BD1; [1]) [nM] | IC50 (BRDT-BD2; [2]) [nM]
7 | 5,449 fold | 13.8 | 75200 | 35.4 | 192 fold | 6800 |  |  |  |  |  | Cc1cc(=O)[nH]c2ccc(CC(=O)N3CCC(CCNC(=O)c4ccccn4)CC3)cc12 [CDD-767] |  |  | 
8 |  | 47.9 |  | 148 | 70 fold | 10400 |  |  |  |  |  | Cc1cc(=O)[nH]c2ccc(CC(=O)N3CCC(CCNC(=O)c4ccccc4)CC3)cc12 [CDD-779] |  |  | 
9 | 312 fold | 27.8 | 8690 | 33.7 | 2012 fold | 67800 |  |  |  |  |  | Cc1ccc(-c2ccc(C(=O)NCCC3CCN(C(=O)Cc4ccc5[nH]c(=O)cc(C)c5c4)CC3)nc2)c(C)c1 [CDD-813] |  |  | 
10 |  | 341 |  | 638 |  |  |  |  |  |  |  | Cc1cc(=O)[nH]c2ccc(CC(=O)N3CCC(CCNC(=O)c4nccc5ccccc45)CC3)cc12 [CDD-853] |  |  | 
11 | 381 fold |  |  |  | 756 fold |  | 20000 | 6.5 |  |  |  | Cc1ccc(-c2ccc(C(=O)NC(C)CC3CCN(C(=O)Cc4ccc5[nH]c(=O)cc(C)c5c4)CC3)nc2)c(C)c1 (centres unmarked) [CDD-906] | 52.4 | 31 | 23400
12 | 1,553 fold | 12.8 | 19900 | 5.1 | 6,633 fold | 33800 |  |  | 58 |  |  | CNC(=O)[C@@H](CC1CCN(C(=O)Cc2ccc3[nH]c(=O)cc(C)c3c2)CC1)NC(=O)c1ccc(-c2ccc(Cl)cc2)cn1 [CDD-981] |  |  | 
13 | 1,423 fold | 9.8 | 14000 | 4.7 | 4,799 fold | 22600 |  |  | 100 |  |  | CNC(=O)[C@@H](CC1CCN(C(=O)Cc2ccc3[nH]c(=O)cc(C)c3c2)CC1)NC(=O)c1ccc(-c2ccc(Cl)c(F)c2)cn1 [CDD-982] |  |  | 
